From US10322184B2, “Emulsions for intrapulmonary delivery” (Carnegie Mellon University, priority 2016, dated 2019)

Tested on: Pseudomonas aeruginosa
Test: Agar well diffusion assessment of emulsified tobramycin availability (effective tobramycin concentration)
Type: cell-based
Conditions: aqueous standard solution, 37° C., 24 hours
Method: The presence and availability of emulsified tobramycin was quantified via the commonly used agar well diffusion method of measuring antibiotic content. In this method, the surface of LB agar plates is inoculated with 500 μL of mid-log growth Pseudomonas aeruginosa in tryptic soy broth. Similar methods are disclosed in Omri et al. Pulmonary Retention of Free and Liposome-Encapsulated Tobramycin after Intratracheal Administration in Uninfected Rats and Rats Infected with Pseudomonas aeruginosa. Antimicrobial Agents and Chemotherapy. 1994, 38: 1090-1095. […] Following this evaluation, the effects of Vaq and Caq were assessed using emulsions with Cfs=2 mg/mL H2O of FSH-PEG, Vaq=0.5-2.5%, and Caq=40-200 mg/mL. […]
For each formulation evaluated, approximately 10 mL of emulsion was prepared in a 15-mL centrifuge tube and allowed to sit at room temperature without agitation for five minutes before sampling. […] Following incubation, circular inhibition zones produced by tobramycin that had diffused into the agar were imaged and measured. Interpolation from the inhibition zones of aqueous standard solutions was then used to determine effective tobramycin concentrations (i.e., the aqueous tobramycin concentration resulting in an identical inhibition area) for each emulsion evaluated. […] Three separate trials were performed for each emulsion formulation evaluated. […]

Question: For NC[C@H]1O[C@H](O[C@H]2[C@H](O)[C@@H](O[C@H]3O[C@H](CO)[C@@H](O)[C@H](N)[C@H]3O)[C@H](N)C[C@@H]2N)[C@H](N)C[C@@H]1O [tobramycin], which “Aqueous tobramycin concentration producing the smallest measurable inhibition zone” value is on record?
Answer: 5 µg/mL
